Several values for one entry are separate records, joined by “and”; a condition that tells them apart may be missing. Identical values can stand only once. Inconclusive results and toxic doses are left out. Rule for the calls: active = survival T/C of 150% or more; inactive = T/C below 125% in these data.
System: P388 leukemia ip, CD2F1 mice, survival T/C
Assay: NCI In Vivo Anticancer Drug Screen. Data for tumor model P388 Leukemia (intraperitoneal) in CD2F1 (CDF1) mice
Settings: endpoint: median survival time, higher = longer survival
Method in brief: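 Mice carrying the transplanted tumor received test compound or vehicle. Survival was recorded in each group, and the value is the treated-group measurement divided by that of the vehicle-treated control group.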

[1] = dose: 60.0 mg/kg/injection, schedule: Q01DX005 (ip), vehicle: Klucel (hydroxypropylcellulose) (HPC)
[2] = dose: 120.0 mg/kg/injection, schedule: Q01DX005 (ip), vehicle: Klucel (hydroxypropylcellulose) (HPC)
[3] = dose: 240.0 mg/kg/injection, schedule: Q01DX005 (ip), vehicle: Klucel (hydroxypropylcellulose) (HPC)
[4] = dose: 50.0 mg/kg/injection, schedule: Q01DX009 (ip), vehicle: saline with Tween-80
[5] = dose: 100.0 mg/kg/injection, schedule: Q01DX009 (ip), vehicle: saline with Tween-80
[6] = dose: 200.0 mg/kg/injection, schedule: Q01DX009 (ip), vehicle: saline with Tween-80
[7] = dose: 100.0 mg/kg/injection, schedule: Q01DX001 (ip), vehicle: saline with Tween-80
[8] = dose: 50.0 mg/kg/injection, schedule: Q01DX009 (ip), vehicle: saline
[9] = dose: 100.0 mg/kg/injection, schedule: Q01DX009 (ip), vehicle: saline
[10] = dose: 50.0 mg/kg/injection, schedule: Q01DX005 (ip), vehicle: saline with Tween-80
[11] = dose: 100.0 mg/kg/injection, schedule: Q01DX005 (ip), vehicle: saline with Tween-80
[12] = dose: 200.0 mg/kg/injection, schedule: Q01DX005 (ip), vehicle: saline with Tween-80
[13] = dose: 60.0 mg/kg/injection, schedule: Q01DX005 (ip), vehicle: saline with Tween-80
[14] = dose: 120.0 mg/kg/injection, schedule: Q01DX005 (ip), vehicle: saline with Tween-80

Measured: T/C

CN(CC#CCN(C)C1=NC(=O)CC1)C1=NC(=O)CC1
inactive: [1] 92 % of control | [2] 94 % of control | [3] 100 % of control

COC(=O)C1C(Sc2ccccc2)CCN1C(C)=O (centres undefined)
inactive: dose: 50.0 mg/kg/injection, schedule: Q01DX005 (ip), vehicle: saline 88 % of control | dose: 100.0 mg/kg/injection, schedule: Q01DX005 (ip), vehicle: saline 88 % of control | dose: 200.0 mg/kg/injection, schedule: Q01DX005 (ip), vehicle: saline 88 % of control

CC(=O)NC(C=O)C(O)C(O)C(O)C(=O)O (centres undefined)
inactive: dose: 25.0 mg/kg/injection, schedule: Q01DX009 (ip), vehicle: Klucel (hydroxypropylcellulose) (HPC) 107 % of control | dose: 50.0 mg/kg/injection, schedule: Q01DX009 (ip), vehicle: Klucel (hydroxypropylcellulose) (HPC) 100 % of control | dose: 100.0 mg/kg/injection, schedule: Q01DX009 (ip), vehicle: Klucel (hydroxypropylcellulose) (HPC) 107 % of control

COC1/C=C/OC2(C)Oc3c(C)c(O)c4c(O)c(c(/C=N/n5cnc6c(ncn6C6OC(CO)C(O)C6O)c5=O)c(O)c4c3C2=O)NC(=O)/C(C)=C\C=C\C(C)C(O)C(C)C(O)C(C)C(OC(C)=O)C1C (centres undefined)
inactive: [4] 106 % of control | [5] 97 % of control | [6] 102 % of control

CC1=C(C(=O)Nc2ccccc2)C(/C=C/c2ccccc2)C(C(=O)Nc2ccccc2)=C(C)N1
inactive: dose: 25.0 mg/kg/injection, schedule: Q01DX001 (ip), vehicle: saline with Tween-80 92 % of control | dose: 50.0 mg/kg/injection, schedule: Q01DX001 (ip), vehicle: saline with Tween-80 89 % of control | [7] 96 % of control

CC12COC3(C)CCC(C)(OC1)N23 (centres undefined)
inactive: [4] 100 % of control | [5] 97 % of control | [6] 103 % of control

O=C1NC(=O)c2ccc3c4ccc5c6c(ccc(c7ccc1c2c73)c64)C(=O)N(c1ccccc1)C5=O
inactive: dose: 6.25 mg/kg/injection, schedule: Q01DX005 (ip), vehicle: Klucel (hydroxypropylcellulose) (HPC) 99 % of control | dose: 12.5 mg/kg/injection, schedule: Q01DX005 (ip), vehicle: Klucel (hydroxypropylcellulose) (HPC) 101 % of control and 94 % of control | dose: 25.0 mg/kg/injection, schedule: Q01DX005 (ip), vehicle: Klucel (hydroxypropylcellulose) (HPC) 107 % of control | dose: 50.0 mg/kg/injection, schedule: Q01DX005 (ip), vehicle: Klucel (hydroxypropylcellulose) (HPC) 93 % of control | dose: 100.0 mg/kg/injection, schedule: Q01DX005 (ip), vehicle: Klucel (hydroxypropylcellulose) (HPC) 95 % of control | dose: 200.0 mg/kg/injection, schedule: Q01DX005 (ip), vehicle: Klucel (hydroxypropylcellulose) (HPC) 88 % of control

N#Cc1ncc(Cl)c2ccccc12
inactive: dose: 50.0 mg/kg/injection, schedule: Q01DX009 (ip), vehicle: suspension in saline 90 % of control | dose: 100.0 mg/kg/injection, schedule: Q01DX009 (ip), vehicle: suspension in saline 87 % of control | dose: 200.0 mg/kg/injection, schedule: Q01DX009 (ip), vehicle: suspension in saline 97 % of control

O=[N+]([O-])c1ccc(-c2noc(-c3cccs3)n2)cc1
inactive: [1] 95 % of control | [2] 101 % of control | [3] 97 % of control

Cc1ccc(S(=O)(=O)OCC(O)C(O)COS(=O)(=O)c2ccc(C)cc2)cc1 (centres undefined)
inactive: [8] 97 % of control | [9] 102 % of control and 113 % of control | dose: 200.0 mg/kg/injection, schedule: Q01DX009 (ip), vehicle: saline 101 % of control and 95 % of control

COc1cccc(OC)c1OCc1ccc(OCc2ccccc2)cc1
inactive: [10] 100 % of control | [11] 95 % of control | [12] 105 % of control

Cc1cc(=O)c(C#N)c(C)s1
inactive: dose: 100.0 mg/kg/injection, schedule: Q04DX002 (ip), vehicle: saline with Tween-80 107 % of control | dose: 200.0 mg/kg/injection, schedule: Q04DX002 (ip), vehicle: saline with Tween-80 100 % of control | dose: 400.0 mg/kg/injection, schedule: Q04DX002 (ip), vehicle: saline with Tween-80 110 % of control

CC(=O)Nc1ccc(C)c2ccccc12
inactive: dose: 75.0 mg/kg/injection, schedule: Q04DX003 (ip), vehicle: saline with Tween-80 100 % of control | dose: 150.0 mg/kg/injection, schedule: Q04DX003 (ip), vehicle: saline with Tween-80 104 % of control | dose: 300.0 mg/kg/injection, schedule: Q04DX003 (ip), vehicle: saline with Tween-80 108 % of control

CCSCCCC(=O)O
inactive: dose: 25.0 mg/kg/injection, schedule: Q01DX009 (ip), vehicle: saline 100 % of control | [8] 100 % of control | [9] 100 % of control

Nc1[nH]c(=O)ncc1-c1ccc(Cl)cc1
inactive: [13] 97 % of control | [14] 96 % of control

Fc1ccc(CN2COc3c(cc(Cl)c4cccnc34)C2)cc1
inactive: dose: 100.0 mg/kg/injection, schedule: Q04DX003 (ip), vehicle: Klucel (hydroxypropylcellulose) (HPC) 102 % of control | dose: 200.0 mg/kg/injection, schedule: Q04DX003 (ip), vehicle: Klucel (hydroxypropylcellulose) (HPC) 100 % of control | dose: 400.0 mg/kg/injection, schedule: Q04DX003 (ip), vehicle: Klucel (hydroxypropylcellulose) (HPC) 110 % of control

CC1=C(C)CN(c2ccnc3cc(Cl)ccc23)OC1
inactive: [10] 102 % of control | [11] 97 % of control | [12] 97 % of control

COC(=O)C[C@@]1(C(=O)OC)[C@@H](C(=O)OC)C(C(=O)OC)=NN1C
inactive: dose: 12.5 mg/kg/injection, schedule: Q04DX002 (ip), vehicle: Klucel (hydroxypropylcellulose) (HPC) 100 % of control | dose: 25.0 mg/kg/injection, schedule: Q04DX002 (ip), vehicle: Klucel (hydroxypropylcellulose) (HPC) 98 % of control | dose: 50.0 mg/kg/injection, schedule: Q04DX002 (ip), vehicle: Klucel (hydroxypropylcellulose) (HPC) 100 % of control

Nc1n[n+](-c2cccc([N+](=O)[O-])c2)no1
inactive: dose: 3.13 mg/kg/injection, schedule: Q01DX009 (ip), vehicle: other 113 % of control | dose: 3.13 mg/kg/injection, schedule: Q01DX009 (ip), vehicle: water 106 % of control | dose: 6.25 mg/kg/injection, schedule: Q01DX009 (ip), vehicle: other 113 % of control | dose: 6.25 mg/kg/injection, schedule: Q01DX009 (ip), vehicle: water 110 % of control | dose: 25.0 mg/kg/injection, schedule: Q01DX009 (ip), vehicle: water 121 % of control | dose: 50.0 mg/kg/injection, schedule: Q01DX009 (ip), vehicle: other 113 % of control

CC(CC(N)=O)Cc1ccccc1 (centres undefined)
inactive: [7] 104 % of control | dose: 200.0 mg/kg/injection, schedule: Q01DX001 (ip), vehicle: saline with Tween-80 103 % of control | dose: 400.0 mg/kg/injection, schedule: Q01DX001 (ip), vehicle: saline with Tween-80 104 % of control

CC(C)(C)OC(=O)NCCCCC(NC(=O)OC(C)(C)C)C(=O)O (centres undefined)
inactive: [4] 102 % of control | [5] 101 % of control | [6] 92 % of control

CCc1nc(N)nc(N)c1-c1ccc(OC)c(N=[N+]=[N-])c1
inactive: [13] 97 % of control | [14] 100 % of control | dose: 240.0 mg/kg/injection, schedule: Q01DX005 (ip), vehicle: saline with Tween-80 117 % of control

CCCCCCN(CCCCCC)CC(O)c1cc(-c2ccccc2)nc2cc(Cl)ccc12 (centres undefined)
inactive: [10] 115 % of control | [11] 103 % of control | [12] 113 % of control

Source: PubChem BioAssay AID330 (DTP/NCI, 2004)
